Results on two sequences are retold here after publication PMC6001375, “CLERK is a novel receptor kinase required for sensing of root-active CLE peptides in Arabidopsis” (Development (Cambridge, England), 2018).

For assay [1], the system named is VISUAL-cultured wild-type cotyledons (sieve element-specific genes). The assay can be described thus: RNAseq transcriptomic response in the VISUAL trans-differentiation assay. The format is cell-based, Arabidopsis thaliana. To be noted: for Number of responsive genes / Overlap of CLE26- and CLE45-responsive genes: 100 nM peptide, 2 h, q value<0.01. The source says:
In an attempt to isolate novel components of CLE peptide signaling in A. thaliana root protophloem development, we embarked on a combinatorial approach of transcriptomic analysis and forward genetics. Experimental investigation of developing protophloem sieve elements is inherently difficult, because they represent only 40-50 cells inside the vascular cylinder of the root meristem, and some of our genes of interest are expressed only in a subset of these. Protophloem-specific transcriptomic responses are thus strongly diluted when root tips are assayed, and attempts to identify, e.g. protophloem-specific CLE45-responsive genes have so far been unsuccessful ([Depuydt et al., 2013]). However, in a novel trans-differentiation assay [vascular cell induction culture system using Arabidopsis leaves (VISUAL)] ([Kondo et al., 2016]), in which cotyledon or leaf mesophyll cells are re-programmed to differentiate into a ∼50:50 mix of xylem vessels and sieve elements, sieve element-specific genes can be monitored in unprecedented abundance. Although these trans-differentiated sieve elements are not root protophloem, they do represent a native cell type in which sieve element regulators can be investigated successfully ([Breda et al., 2017]; [Kondo et al., 2016]). Moreover, a transcriptomic time series identified BAM3 as a central node in the early module of the trans-differentiation process ([Kondo et al., 2016]). Thus, we concluded that VISUAL could be employed to identify CLE26- and CLE45-responsive sieve element-specific genes. To achieve this, we VISUAL-cultured wild-type cotyledons and monitored BAM3 expression in a parallel cultured transgenic line that carried a BAM3::GUS reporter gene. Strong comprehensive BAM3 expression was observed after 48 h. At this time point, the wild-type sample was split in replicates and treated with control, 100 nM CLE26 or 100 nM CLE45 for 2 h. Total RNA was isolated immediately after from these samples, and cDNA was prepared for high-throughput sequencing.
Vascular tissue trans-differentiation was induced in cotyledons over 2 days as described previously ([Kondo et al., 2016]). Samples were then treated with 100 nM of CLE26 or CLE45 peptide for 2 h. Total RNA of two biological replicates was then extracted from 100 mg of fresh material, using RNeasy Plant mini kits (Qiagen). Truseq Stranded mRNA kits (Illumina) were used to prepare cDNA libraries, which were sequenced on an Illumina Hiseq 2500 instrument. Read counts and differential expression were determined with Kallisto ([Bray et al., 2016]) and Sleuth ([Pimentel et al., 2017]) software, using the TAIR10 reference transcriptome. The raw data have been deposited in the NCBI Sequence Read Archive (www.ncbi.nlm.nih.gov/sra/) under accession SRP126390.

Assay [2] concerns root meristem protophloem. The assay can be described thus: Protophloem development / CVP2::NLS-VENUS marker in root meristem. The format is in vivo, Arabidopsis thaliana. The note with it: clerk mutant roots, CLE26 treatment; n=18-30 (Fig. 5D). The text has this:
Fig. 5. CLERK prevents premature expression of a protophloem marker. (A) Schematic presentation of the protophloem sieve element lineage in the Arabidopsis root meristem. Red asterisk, pericycle cell file; dark-blue asterisk, protophloem sieve element cell file; light-blue asterisk, incipient metaphloem cell file; arrowheads indicate the two periclinal divisions. […] Left: VENUS fluorescence, yellow. Right: overlay of VENUS fluorescence with PI cell wall staining (cyan). Asterisk indicates protophloem sieve element cell file. (D) Quantification of protophloem strand presence/absence in root meristems of a Col-0 wild type or clerk mutant upon CLE26 treatment. Statistically significant differences when compared with mock control are indicated by letters ([…], P<0.001; n=18-30). […] (G) Distance between first detectable CVP2 expression and the quiescent center (QC) in Col-0 wild type and clerk mutants, expressed as cell number. […] (H) Distance between first detectable CVP2 expression and the quiescent center (QC) in Col-0 wild type and clerk mutants, expressed as absolute distance. […] (J) Quantification of cell file number in Col-0 wild type or clerk mutants, counted at the level where protoxylem has differentiated. […] Left: VENUS fluorescence, yellow; Right: overlay of VENUS fluorescence with PI cell wall staining (cyan). […]

Assay [3] concerns BAM3 ectodomain. To be noted: ref Hazak et al., 2017; cited from earlier work. The text has this:
The CLE resistance of clerk mutants could be explained through indirect effects, for example on the expression of bona fide CLE receptors, as proposed for crn ([Hazak et al., 2017]). To evaluate this scenario, we focused our efforts on the only identified CLE receptor in the root protophloem so far, the CLE45 receptor BAM3 ([Hazak et al., 2017]; [Kang and Hardtke, 2016]). Introduction of a BAM3::BAM3-CITRINE transgene into clerk mutants did however not reveal any altered BAM3 expression or localization (Fig. S1D). To also test whether CLERK could serve as a co-receptor for BAM3 instead, we obt ...

Regarding RKVPRGPDPIHN [CLE26], in assay [1] (100 nM CLE26, 2 h), the “Regulation of SARK and NIK2” value was “downregulated”. Also, the “Regulation of CLERK (At2g23950)” value in assay [1] (100 nM CLE26, 2 h, top CLE26-responsive gene) is given as “downregulated”. Moreover, in assay [1], the “Number of responsive genes” value worked out at 167 genes; the “Overlap of CLE26- and CLE45-responsive genes” value amounted to 36 genes. Further, in assay [2], the “Protophloem development in clerk mutants” value is listed as “maintained protophloem development”.
For the sequence RRVRRGSDPIHN [CLE45], in assay [1], the “Number of responsive genes” value stood at 97 genes; the “Overlap of CLE26- and CLE45-responsive genes” value was determined as 36 genes. The “Binding to BAM3 ectodomain” value in assay [3] was “high-affinity”.
